Measurements: PMC3600725 (CPT: Pharmacometrics & Systems Pharmacology, 2013)
“Also recorded” adds a separate entry of the source. Read-outs that look alike come from different tables or passages of the source.

Legend:
MRP2 = MRP2 (Homo sapiens, UniProt Q92887); settings: 50 µmol/l MK571; cited from earlier work
[1] = type: in vivo, human
[2] = test system: human sandwich-cultured hepatocytes (SCH); assay: Accumulation, BEI and in vitro clearance in human SCH; type: in vitro ADME
[3] = cited from earlier work
[4] = cited from earlier work; remark: listed apart in the source
[5] = Estimated portal vein concentration of ritonavir; set-up: species or system human
[6] = 2 × 300 mg oral ritonavir 14 and 2 h before, mean ± SD, n = 3
[7] = ^99mTc–mebrofenin alone (control), mean ± SD, n = 8
[8] = from human SCH data, well-stirred model, mean ± SD of n=3 donors

Sequence of MRP2 (Q92887 whole entry): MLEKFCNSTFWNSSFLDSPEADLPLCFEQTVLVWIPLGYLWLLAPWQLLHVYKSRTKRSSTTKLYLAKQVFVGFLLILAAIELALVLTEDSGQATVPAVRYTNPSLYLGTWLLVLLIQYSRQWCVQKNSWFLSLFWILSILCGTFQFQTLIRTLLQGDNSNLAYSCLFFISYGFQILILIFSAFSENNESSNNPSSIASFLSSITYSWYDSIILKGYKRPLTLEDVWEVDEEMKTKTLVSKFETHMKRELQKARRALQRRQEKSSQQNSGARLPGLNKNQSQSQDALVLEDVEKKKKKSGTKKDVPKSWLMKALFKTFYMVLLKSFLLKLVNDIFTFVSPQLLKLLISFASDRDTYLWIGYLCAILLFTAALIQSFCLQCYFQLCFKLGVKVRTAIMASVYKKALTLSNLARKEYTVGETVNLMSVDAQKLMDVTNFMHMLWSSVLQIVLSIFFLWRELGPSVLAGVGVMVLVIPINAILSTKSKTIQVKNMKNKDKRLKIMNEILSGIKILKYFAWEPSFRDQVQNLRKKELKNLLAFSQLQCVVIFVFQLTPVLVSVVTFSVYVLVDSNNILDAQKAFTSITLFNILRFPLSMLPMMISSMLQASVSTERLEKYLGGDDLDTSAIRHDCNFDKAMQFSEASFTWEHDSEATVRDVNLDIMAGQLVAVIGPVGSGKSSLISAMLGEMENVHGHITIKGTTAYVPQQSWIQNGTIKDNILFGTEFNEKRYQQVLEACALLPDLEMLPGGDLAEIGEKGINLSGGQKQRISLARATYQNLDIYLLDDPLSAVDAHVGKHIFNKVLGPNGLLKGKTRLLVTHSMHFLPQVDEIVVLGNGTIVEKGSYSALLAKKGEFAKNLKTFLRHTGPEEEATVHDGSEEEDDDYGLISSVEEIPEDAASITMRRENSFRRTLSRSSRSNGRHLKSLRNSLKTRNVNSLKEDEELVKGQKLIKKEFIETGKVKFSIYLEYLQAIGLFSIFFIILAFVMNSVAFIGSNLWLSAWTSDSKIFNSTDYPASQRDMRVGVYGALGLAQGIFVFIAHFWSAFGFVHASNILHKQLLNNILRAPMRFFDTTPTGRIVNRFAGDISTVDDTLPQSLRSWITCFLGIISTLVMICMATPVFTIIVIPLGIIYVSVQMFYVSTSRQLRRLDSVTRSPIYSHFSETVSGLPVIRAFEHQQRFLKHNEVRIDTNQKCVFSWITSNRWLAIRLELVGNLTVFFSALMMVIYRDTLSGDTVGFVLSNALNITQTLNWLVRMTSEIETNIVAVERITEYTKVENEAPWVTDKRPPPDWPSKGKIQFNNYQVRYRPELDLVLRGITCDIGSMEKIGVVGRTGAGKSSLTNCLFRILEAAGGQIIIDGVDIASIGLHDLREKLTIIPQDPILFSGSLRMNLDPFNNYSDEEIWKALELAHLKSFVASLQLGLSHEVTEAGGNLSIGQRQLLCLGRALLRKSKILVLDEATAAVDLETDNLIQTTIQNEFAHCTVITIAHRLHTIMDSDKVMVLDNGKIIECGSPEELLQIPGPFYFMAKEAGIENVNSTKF

For `CN(C)C(=O)CCSC(SCCC(=O)O)c1cccc(/C=C/c2ccc3ccc(Cl)cc3n2)c1` (stereo not shown) [MK571], the “Reduction of ATP-dependent transport of ^99mTc–mebrofenin (MRP2 vesicles)” value (MRP2) is listed as 88 ± 2%.
For `Cc1cc(C)c(NC(=O)CN(CC(=O)[O-])CC(=O)[O-])c(C)c1Br.Cc1cc(C)c(NC(=O)CN(CC(=O)[O-])CC(=O)[O-])c(C)c1Br.[99Tc+4]` [^99mTc–mebrofenin, ^99mTechnetium–mebrofenin], the “AUC0–∞ (blood)” value [1, 6] was 4,464 ± 1,861 nCi·min/ml, the Biliary recovery [1, 6] was 72 ± 2 % Dose and the “Change in AUCblood,0-∞ (systemic exposure)” value ([1]; 2 × 300 mg ritonavir as compared with control) was “significantly greater, by approximately twofold; also recorded: twofold increase”. The Biliary recovery ([1]; 2 h after single 200 mg oral ritonavir, mean ± SD, n = 7) was 59 ± 11 % Dose, the “AUC0–∞ (blood)” value [1, 7] was 1,970 ± 311 nCi·min/ml and the Biliary recovery [1, 7] was 75 ± 12 % Dose. For the same compound, the CLbiliary [1, 7] was 12.5 ± 2.5 mL/min/kg, the Urinary recovery ([1]; all groups, unaffected by ritonavir treatment) was ~ 1 % of the administered dose and the “Hepatic extraction ratio (CLtotal/Qh)” value ([1]; control subjects, mean ± SD) was 0.80 ± 0.16. For the same compound, the “CLbiliary, Predicted In Vivo Clearance” value [2, 8] was 4.4 ± 1.5 mL/min/kg, the “CLuptake, Predicted In Vivo Clearance” value [2, 8] was 10.6 ± 3.1 mL/min/kg and the “In vitro intrinsic CLuptake lower than semi-PBPK CLuptake,h” value ([2]; human SCH vs Table 2 estimate) was ~ 50 fold. For the same compound, the “CLuptake, In Vitro Intrinsic Clearance” value ([2]; human SCH, mean ± SD of n=3 donors) was ~ 24 mL/min/kg, the “Hepatic extraction, previous reports” value [3] was ~ 100% and the “Hepatic elimination half-life, previous reports” value [4] was ~ 15 min. The “Time of maximum liver concentration, reported value” [4] was 11 min.
In the case of `CC(C)c1nc(CN(C)C(=O)N[C@H](C(=O)N[C@@H](Cc2ccccc2)C[C@H](O)[C@H](Cc2ccccc2)NC(=O)OCc2cncs2)C(C)C)cs1` [Ritonavir], the “Total cellular accumulation of ritonavir (Ccell,total)” value ([2]; human SCH) is reported as “up to 100 µmol/l” and the “Maximum estimated portal vein concentration” value [5] is reported as “up to 45 µmol/l”.
